Experimental data from patent US20260256751A1, “COMBINATION OF BETA-2-ADRENERGIC RECEPTOR AGONISTS AND GLP-1 RECEPTOR AGONISTS FOR USE IN TREATING HYPERGLYCAEMIA” (ATROGI AB, priority 2023, published 2026).

How the values were obtained:
[1] = system: differentiated L6-myotubes; settings: as described in WO 2019/053427, Biological Example 1 therein; cited from earlier work
[2] = system: male C57Bl/6N mice fed with high-fat, high-sucrose diet; assay: Combination of Compound A and liraglutide in high-fat, high-sucrose diet fed mice (Biological Example 2); assay type: in vivo; settings: Compound A hemi-tartrate 1 mg/kg with liraglutide 0.1 mg/kg, subcutaneously, daily for 2 weeks; compared with liraglutide; FIGS. 2-5
Description: 2.5 Months old male C57Bl/6N mice were grouped caged (4-5 mice per cage), kept at 30° C. and fed with high-fat, high-sucrose diet (45% fat) for 5.5 months. The mice were divided into four groups (2-3 mice per cage) according to their fasting blood glucose levels, glucose tolerance, body weight, body fat and lean mass, and treated daily for 2 weeks, subcutaneously with either vehicle, liraglutide (0.1 mg/kg), Compound A (1 mg/kg), or a mixture of liraglutide (0.1 mg/kg) and Compound A (1 mg/kg). The mice were fasted for 5 h and fasting blood glucose and fasting serum insulin levels were recorded. Glucose (2.5 g/kg lean mass) was injected ip and glucose levels were recorded after 15, 30, 60, 90 and 120 min. The results were used to calculate HOMA-IR (fasting blood glucose (mM)×fasting insulin (μIU/mL)/22.5) and glucose tolerance (area under the curves 0-120 min over the 5.5 mM blood glucose level).

[3] = system: differentiated L6-myotubes; settings: as described in WO 2019/053427, Biological Example 2 therein; cited from earlier work
β2-adrenergic receptor = molecular target: T1, β2-adrenergic receptor (Rattus norvegicus, UniProt P10608); assay: Glucose uptake in the presence of a selective β2-adrenergic receptor inhibitor (Biological Example 1); assay type: cell-based; settings: L6-myotubes; Compound A (2HCl salt) 1×10^−5 M in the presence of ICI-118551; FIG. 1
T1 construct: L6-myoblasts were grown in Dulbecco's Modified Eagle's Medium (DMEM); endogenous in cells; host or cells: L6 myoblasts differentiated into myotubes
T1 sequence (P10608 whole entry): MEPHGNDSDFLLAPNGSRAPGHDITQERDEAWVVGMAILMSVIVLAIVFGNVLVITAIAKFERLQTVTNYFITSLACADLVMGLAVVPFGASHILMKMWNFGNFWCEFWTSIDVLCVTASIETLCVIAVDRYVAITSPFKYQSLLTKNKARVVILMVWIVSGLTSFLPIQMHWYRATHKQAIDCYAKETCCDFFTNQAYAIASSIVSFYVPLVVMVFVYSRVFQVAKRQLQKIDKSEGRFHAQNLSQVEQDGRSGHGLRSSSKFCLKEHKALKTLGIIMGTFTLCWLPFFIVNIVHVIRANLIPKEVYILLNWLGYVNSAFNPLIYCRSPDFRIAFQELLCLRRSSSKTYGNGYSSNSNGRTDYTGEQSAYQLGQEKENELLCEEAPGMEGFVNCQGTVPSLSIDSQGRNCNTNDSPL
Description: L6-myoblasts were grown in Dulbecco's Modified Eagle's Medium (DMEM) containing 1 g/L glucose supplemented with 10% fetal bovine serum (FBS), 2 mM L-glutamine, 50 U/mL penicillin, 50 g/mL streptomycin and 10 mM HEPES. Cells were plated at 1x 10^5 cells per mL in 24-well plates. After reaching 90% confluence the cells were grown in medium containing 2% FBS for 7 days where upon cells differentiated into myotubes. […] After 1 h 40 min the cells were washed with warm, glucose free medium twice and another portion of agonist was added to the glucose free medium. After another 20 min of incubation the cells were exposed to 50 nM ^3H-2-deoxyglucose for 10 min before washed in ice cold glucose free medium three times and lysed in 400 µl/well 0.2 M NaOH for 1 h at 60° C.

[4] = system: differentiated L6-myotubes; assay: cAMP production relative to isoprenaline (Biological example 2 of WO 2019/053427); assay type: cell-based; settings: 0.25 h, compound at 10 μM, activity relative to isoproterenol at 10 μM
Procedure, shortened: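 Differentiated L6 myotubes stimulated 15 min with test compound or isoprenaline, each at final 1×10^−5 M, in HBSS with 1% BSA, 5 mM HEPES, 1 mM IBMX, pH 7.4. cAMP production by the compound expressed relative to that induced by the same concentration of isoprenaline.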

[5] = system: differentiated L6-myotubes; assay: Glucose uptake screen (Biological example 1 of WO 2019/053427); assay type: cell-based; settings: compound at 10 μM, activity relative to isoproterenol at 10 μM, read-out: Biological example 1 of WO 2019/053427 (GU)
Procedure, shortened: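 Rat L6 myoblasts were differentiated into myotubes over 7 days in 2% FBS, then serum-starved overnight. Cells were stimulated with 1×10^−5 M compound plus β2 antagonist ICI-118551 for 1 h 40 min and re-dosed for 20 min in glucose-free medium. Uptake of 50 nM ^3H-2-deoxyglucose over 10 min was counted after NaOH lysis.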

| Structure (SMILES) | glucose uptake [1] | effects on glucose homeostasis (glycemia, glucose tolerance and insulin sensitivity) [2] | cAMP levels induced [3] | receptor mediating the glucose uptake promoted by the compound (β2-adrenergic receptor) | Emax at 10 µM [4] [%] | Emax at 10 µM [5] [%] |
| --- | --- | --- | --- | --- | --- | --- |
| CC(C)(C)NC[C@H](O)c1cncc(F)c1 [Compound A, (R)-2-(tert-Butylamino)-1-(5-fluoropyridin-3-yl)ethan-1-ol] | significant glucose uptake | additional positive effects | without inducing significant levels of cAMP | mediated through the β2-adrenergic receptor | – | – |
| CCCC1(CCC)CC[C@H]([C@@H](O)c2cccc(F)c2)N1 [Compound 158, (S)-[(R)-5,5-dipropyl-2-pyrrolidinyl](m-fluorophenyl)methanol] | – | – | – | – | < 25 | < 25 |
| CN([C@H]1CC[C@H](CC(C)(C)NC[C@H](O)c2cncc(F)c2)CC1)S(C)(=O)=O [Compound 521, (R)-2-{1,1-dimethyl-2-[(1r,4R)-4-(N-mesyl-N-methylamino)cyclohexyl]ethylamino}-1-(5-fluoro-3-pyridyl)-1-ethanol] | – | – | – | – | < 25 | 50 to 75 |
| O[C@@H](c1cncc(F)c1)C12CCC(COCc3ccc(F)cc3)(CC1)N2 [Compound 442, (S)-(4-{[(p-fluorophenyl)methoxy]methyl}-7-azabicyclo[2.2.1]hept-1-yl)(5-fluoro-3-pyridyl)methanol] | – | – | – | – | < 25 | 25 to 50 |
| CO[C@@H]1CCC[C@H](C(C)(C)NC[C@H](O)c2cccc(F)c2)C1 [Compound 255, (R)-2-{1-[(1S,3R)-3-methoxycyclohexyl]-1-methylethylamino}-1-(m-fluorophenyl)-1-ethanol] | – | – | – | – | < 25 | > 75 |
| CC1(C)CC[C@H]([C@H](O)c2cccc(N)c2F)N1 [Compound 227, (R)-[(R)-5,5-dimethyl-2-pyrrolidinyl](3-amino-2-fluorophenyl)methanol] | – | – | – | – | < 25 | > 75 |
| O[C@@H](c1cncc(F)c1)C12CCC(COCc3ccc(OC(F)(F)F)cc3)(CC1)N2 [Compound 489, (S)-(5-fluoro-3-pyridyl)(4-{[(p-trifluoromethoxyphenyl)methoxy]methyl}-7-azabicyclo[2.2.1]hept-1-yl)methanol] | – | – | – | – | < 25 | < 25 |
| CC(C)(C)NC[C@H](O)c1cccc(F)c1 [Compound 54, (R)-2-(tert-butylamino)-1-(m-fluorophenyl)-1-ethanol] | – | – | – | – | < 25 | > 75 |
| CC12CC(C1)[C@H]([C@@H](O)c1ccccc1F)N2 [Compound 212, (S)-{(R)-1-methyl-2-azabicyclo[2.1.1]hex-3-yl}(o-fluorophenyl)methanol] | – | – | – | – | < 25 | > 75 |
| CC(C)(C)NC[C@H](O)c1ccc(Cl)cn1 [Compound 147, (S)-2-(tert-butylamino)-1-(5-chloro-2-pyridyl)-1-ethanol] | – | – | – | – | < 25 | 25 to 50 |
